Laboratory results taken from the NIST ThermoML archive (doi:10.1021/je7003929).

Test: xn = mol fraction of the nth substance listed
Details: Liquid, Vibrating tube method

c1ccc2sccc2c1 [benzo[b]thiophene] + CCCCCC
Details | mass density [kg/m3]
322.95 K, 1028 kPa, x2 = 0.0629 | 1103.4
322.95 K, 2021 kPa, x2 = 0.0629 | 1104.1
322.95 K, 3029 kPa, x2 = 0.0629 | 1104.7
322.95 K, 4021 kPa, x2 = 0.0629 | 1105.4
322.95 K, 5037 kPa, x2 = 0.0629 | 1106.1
322.95 K, 6021 kPa, x2 = 0.0629 | 1106.7
322.95 K, 7021 kPa, x2 = 0.0629 | 1107.4
322.95 K, 8029 kPa, x2 = 0.0629 | 1108.1
322.95 K, 9018 kPa, x2 = 0.0629 | 1108.7
322.95 K, 10003 kPa, x2 = 0.0629 | 1109.3
322.95 K, 10998 kPa, x2 = 0.0629 | 1109.9
322.95 K, 12016 kPa, x2 = 0.0629 | 1110.6
322.95 K, 13012 kPa, x2 = 0.0629 | 1111.2
322.95 K, 14019 kPa, x2 = 0.0629 | 1111.8
322.95 K, 15018 kPa, x2 = 0.0629 | 1112.5
322.95 K, 16018 kPa, x2 = 0.0629 | 1113.1
322.95 K, 17024 kPa, x2 = 0.0629 | 1113.7
322.95 K, 18018 kPa, x2 = 0.0629 | 1114.4
322.95 K, 19024 kPa, x2 = 0.0629 | 1115
322.95 K, 20012 kPa, x2 = 0.0629 | 1115.6
323.02 K, 1017 kPa, x2 = 0.7491 | 752.7
323.02 K, 2013 kPa, x2 = 0.7491 | 753.8
323.02 K, 3014 kPa, x2 = 0.7491 | 754.9
323.02 K, 4012 kPa, x2 = 0.7491 | 756
323.02 K, 5008 kPa, x2 = 0.7491 | 757.1
323.02 K, 6010 kPa, x2 = 0.7491 | 758.1
323.02 K, 7025 kPa, x2 = 0.7491 | 759.2
323.02 K, 8028 kPa, x2 = 0.7491 | 760.2
323.02 K, 9009 kPa, x2 = 0.7491 | 761.2
323.02 K, 10010 kPa, x2 = 0.7491 | 762.2
323.02 K, 11002 kPa, x2 = 0.7491 | 763.2
323.02 K, 12017 kPa, x2 = 0.7491 | 764.1
323.02 K, 13019 kPa, x2 = 0.7491 | 765.1
323.02 K, 14006 kPa, x2 = 0.7491 | 766
323.02 K, 15015 kPa, x2 = 0.7491 | 767
323.02 K, 16022 kPa, x2 = 0.7491 | 767.9
323.02 K, 17019 kPa, x2 = 0.7491 | 768.8
323.02 K, 18016 kPa, x2 = 0.7491 | 769.8
323.02 K, 19024 kPa, x2 = 0.7491 | 770.6
323.02 K, 20021 kPa, x2 = 0.7491 | 771.5
323.09 K, 1017 kPa, x2 = 0.9432 | 659.3
323.09 K, 2024 kPa, x2 = 0.9432 | 660.6
323.09 K, 3024 kPa, x2 = 0.9432 | 661.9
323.09 K, 4016 kPa, x2 = 0.9432 | 663.1
323.09 K, 5024 kPa, x2 = 0.9432 | 664.2
323.09 K, 6021 kPa, x2 = 0.9432 | 665.5
323.09 K, 7018 kPa, x2 = 0.9432 | 666.6
323.09 K, 8020 kPa, x2 = 0.9432 | 667.8
323.09 K, 9019 kPa, x2 = 0.9432 | 668.9
323.09 K, 10010 kPa, x2 = 0.9432 | 670
323.09 K, 11012 kPa, x2 = 0.9432 | 671.1
323.09 K, 12013 kPa, x2 = 0.9432 | 672.2
323.09 K, 13021 kPa, x2 = 0.9432 | 673.3
323.09 K, 14023 kPa, x2 = 0.9432 | 674.3
323.09 K, 15015 kPa, x2 = 0.9432 | 675.3
323.09 K, 16001 kPa, x2 = 0.9432 | 676.3
323.09 K, 17028 kPa, x2 = 0.9432 | 677.3
323.09 K, 18003 kPa, x2 = 0.9432 | 678.3
323.09 K, 19001 kPa, x2 = 0.9432 | 679.3
323.09 K, 20017 kPa, x2 = 0.9432 | 680.3
332.66 K, 1020 kPa, x2 = 0.2588 | 991.1
332.66 K, 2021 kPa, x2 = 0.2588 | 991.9
332.66 K, 3022 kPa, x2 = 0.2588 | 992.7
332.66 K, 4018 kPa, x2 = 0.2588 | 993.5
332.66 K, 5021 kPa, x2 = 0.2588 | 994.3
332.66 K, 6012 kPa, x2 = 0.2588 | 995
332.66 K, 7018 kPa, x2 = 0.2588 | 995.8
332.66 K, 8005 kPa, x2 = 0.2588 | 996.6
332.66 K, 9012 kPa, x2 = 0.2588 | 997.3
332.66 K, 10011 kPa, x2 = 0.2588 | 998.2
332.66 K, 11013 kPa, x2 = 0.2588 | 998.9
332.66 K, 12006 kPa, x2 = 0.2588 | 999.7
332.66 K, 13011 kPa, x2 = 0.2588 | 1000.4
332.66 K, 14000 kPa, x2 = 0.2588 | 1001.2
332.66 K, 15025 kPa, x2 = 0.2588 | 1002
332.66 K, 16005 kPa, x2 = 0.2588 | 1002.6
332.66 K, 17000 kPa, x2 = 0.2588 | 1003.3
332.66 K, 18002 kPa, x2 = 0.2588 | 1004.1
332.66 K, 19009 kPa, x2 = 0.2588 | 1004.8
332.66 K, 20016 kPa, x2 = 0.2588 | 1005.5
332.77 K, 1019 kPa, x2 = 0.0629 | 1094.5
332.77 K, 2029 kPa, x2 = 0.0629 | 1095.3
332.77 K, 3030 kPa, x2 = 0.0629 | 1096
332.77 K, 4019 kPa, x2 = 0.0629 | 1096.7
332.77 K, 5026 kPa, x2 = 0.0629 | 1097.4
332.77 K, 6037 kPa, x2 = 0.0629 | 1098.1
332.77 K, 7035 kPa, x2 = 0.0629 | 1098.8
332.77 K, 8021 kPa, x2 = 0.0629 | 1099.5
332.77 K, 9012 kPa, x2 = 0.0629 | 1100.1
332.77 K, 10008 kPa, x2 = 0.0629 | 1100.8
332.77 K, 11026 kPa, x2 = 0.0629 | 1101.5
332.77 K, 12020 kPa, x2 = 0.0629 | 1102.2
332.77 K, 13012 kPa, x2 = 0.0629 | 1102.8
332.77 K, 14016 kPa, x2 = 0.0629 | 1103.4
332.77 K, 15015 kPa, x2 = 0.0629 | 1104.2
332.77 K, 16015 kPa, x2 = 0.0629 | 1104.7
332.77 K, 17020 kPa, x2 = 0.0629 | 1105.4
332.77 K, 18020 kPa, x2 = 0.0629 | 1106.1
332.77 K, 19022 kPa, x2 = 0.0629 | 1106.7
332.77 K, 20017 kPa, x2 = 0.0629 | 1107.3
332.82 K, 1026 kPa, x2 = 0.9432 | 650.1
332.82 K, 2016 kPa, x2 = 0.9432 | 651.4
332.82 K, 3016 kPa, x2 = 0.9432 | 652.8
332.82 K, 4023 kPa, x2 = 0.9432 | 654.1
332.82 K, 5004 kPa, x2 = 0.9432 | 655.4
332.82 K, 6016 kPa, x2 = 0.9432 | 656.7
332.82 K, 7012 kPa, x2 = 0.9432 | 658
332.82 K, 8018 kPa, x2 = 0.9432 | 659.2
332.82 K, 9014 kPa, x2 = 0.9432 | 660.5
332.82 K, 10014 kPa, x2 = 0.9432 | 661.6
332.82 K, 11009 kPa, x2 = 0.9432 | 662.8
332.82 K, 12005 kPa, x2 = 0.9432 | 664
332.82 K, 13020 kPa, x2 = 0.9432 | 665.1
332.82 K, 14007 kPa, x2 = 0.9432 | 666.3
332.82 K, 15005 kPa, x2 = 0.9432 | 667.3
332.82 K, 16012 kPa, x2 = 0.9432 | 668.4
332.82 K, 17015 kPa, x2 = 0.9432 | 669.5
332.82 K, 18010 kPa, x2 = 0.9432 | 670.6
332.82 K, 19000 kPa, x2 = 0.9432 | 671.6
332.82 K, 20001 kPa, x2 = 0.9432 | 672.6
332.86 K, 1031 kPa, x2 = 0.7491 | 743.7
332.86 K, 2024 kPa, x2 = 0.7491 | 744.9
332.86 K, 3019 kPa, x2 = 0.7491 | 746.1
332.86 K, 4001 kPa, x2 = 0.7491 | 747.2
332.86 K, 5002 kPa, x2 = 0.7491 | 748.4
332.86 K, 6020 kPa, x2 = 0.7491 | 749.5
332.86 K, 7005 kPa, x2 = 0.7491 | 750.6
332.86 K, 8013 kPa, x2 = 0.7491 | 751.7
332.86 K, 9004 kPa, x2 = 0.7491 | 752.8
332.86 K, 10000 kPa, x2 = 0.7491 | 753.8
332.86 K, 11019 kPa, x2 = 0.7491 | 754.9
332.86 K, 12006 kPa, x2 = 0.7491 | 755.9
332.86 K, 13014 kPa, x2 = 0.7491 | 757
332.86 K, 14008 kPa, x2 = 0.7491 | 757.9
332.86 K, 15007 kPa, x2 = 0.7491 | 758.9
332.86 K, 16009 kPa, x2 = 0.7491 | 759.9
332.86 K, 17002 kPa, x2 = 0.7491 | 760.9
332.86 K, 18026 kPa, x2 = 0.7491 | 761.8
332.86 K, 19007 kPa, x2 = 0.7491 | 762.8
332.86 K, 20017 kPa, x2 = 0.7491 | 763.7
